From patent publication US12435044B2, “Pyridazinone herbicides and pyridazinone intermediates used to prepare a herbicide” (FMC Corporation, priority 2018, dated 2025)

Tests used:
Test in all cases: Test of Tables L1 to L3, postemergence, mixtures of Cpd. No. 20 with benoxacor, isoxadifen-ethyl, or cloquintocet-mexyl
Format in all cases: in vivo
[1] = system: giant foxtail (SETFA; Setaria faberi); settings: for Plant response rating (0 to 100 scale) SETFA: approx. 14 d
Text: (§1) This test evaluated the effect of mixtures of Cpd. No. 20 with benoxacor, isoxadifen-ethyl, or cloquintocet-mexyl on several plant species. Seeds of plant species selected from corn (ZEAMD; Zea mays, cv. ‘Pioneer 1184’), soybean (GLXMA; Glycine max, cv. Pioneer 35T58), winter wheat (TRZAW; Triticum aetivum, cv. Arezzo), rice (ORYSS; Oryza sativa, cv. M202), and giant foxtail (SETFA; Setaria faberi) were planted in pots containing Redi-Earth® planting medium (Scotts Company, 14111 Scottslawn Road, Marysville, Ohio 43041) comprising spaghnum peat moss, vermiculite, wetting agent and starter nutrients and treated postemergence using test chemicals formulated in a non-phytotoxic solvent mixture which included a surfactant. Plants ranged in height from 7 to 10 cm and were in the one- to two-leaf stage for the postemergence treatment. Treated plants and untreated controls were maintained in a greenhouse for approximately 14 d, after which time all treated plants were compared to untreated controls and visually evaluated for injury. Plant response ratings, summarized in Tables L1 to L3, are based on a 0 to 100 scale where 0 is no effect and 100 is complete control. A dash (-) response means no test result. Test results are presented as a mean of 4 reps.

[2] = system: corn (ZEAMD; Zea mays, cv. ‘Pioneer 1184’); settings: for Plant response rating (0 to 100 scale) ZEAMD: approx. 14 d
Text: as §1

[3] = system: rice (ORYSS; Oryza sativa, cv. M202); settings: for Plant response rating (0 to 100 scale) ORYSS: approx. 14 d
Text: as §1

[4] = system: winter wheat (TRZAW; Triticum aetivum, cv. Arezzo); settings: for Plant response rating (0 to 100 scale) TRZAW: approx. 14 d
Text: as §1

[5] = system: soybean (GLXMA; Glycine max, cv. Pioneer 35T58); settings: for Plant response rating (0 to 100 scale) GLXMA: approx. 14 d
Text: as §1

[6] = Cpd. No. 20 alone 125 g a.i./ha
[7] = Cpd. No. 20 alone 250 g a.i./ha
[8] = Cpd. No. 20 alone 375 g a.i./ha

Cc1ccc2ccc(C)c(-c3c(O)c(Cl)nn(C)c3=O)c2c1 [Cpd. No. 20, 6-chloro-4-(2,7-dimethyl-1-naphthalenyl)-5-hydroxy-2-methyl-3(2H)-pyridazinone]
SETFA plant response rating, 0 to 100 scale ([1]; 125 g a.i./ha): 84 | SETFA plant response rating, 0 to 100 scale ([1]; 250 g a.i./ha): 88 | SETFA plant response rating, 0 to 100 scale ([1]; 375 g a.i./ha): 90 | Plant response rating (0 to 100 scale) SETFA [1, 6]: 84 | Plant response rating (0 to 100 scale) SETFA [1, 7]: 88 | Plant response rating (0 to 100 scale) SETFA [1, 8]: 90 | ZEAMD plant response rating, 0 to 100 scale ([2]; 125 g a.i./ha): 8 | ZEAMD plant response rating, 0 to 100 scale ([2]; 250 g a.i./ha): 1 | ZEAMD plant response rating, 0 to 100 scale ([2]; 375 g a.i./ha): 34 | Plant response rating (0 to 100 scale) ZEAMD [2, 6]: 8 | Plant response rating (0 to 100 scale) ZEAMD [2, 7]: 1 | Plant response rating (0 to 100 scale) ZEAMD [2, 8]: 34 | ORYSS plant response rating, 0 to 100 scale ([3]; 125 g a.i./ha): 5 | ORYSS plant response rating, 0 to 100 scale ([3]; 250 g a.i./ha): 18 | ORYSS plant response rating, 0 to 100 scale ([3]; 375 g a.i./ha): 23 | Plant response rating (0 to 100 scale) ORYSS [3, 6]: 5 | Plant response rating (0 to 100 scale) ORYSS [3, 7]: 18 | Plant response rating (0 to 100 scale) ORYSS [3, 8]: 23 | TRZAW plant response rating, 0 to 100 scale ([4]; 125 g a.i./ha): 28 | TRZAW plant response rating, 0 to 100 scale ([4]; 250 g a.i./ha): 36 | TRZAW plant response rating, 0 to 100 scale ([4]; 375 g a.i./ha): 39 | Plant response rating (0 to 100 scale) TRZAW [4, 6]: 28 | Plant response rating (0 to 100 scale) TRZAW [4, 7]: 36 | Plant response rating (0 to 100 scale) TRZAW [4, 8]: 39 | GLXMA plant response rating, 0 to 100 scale ([5]; 125 g a.i./ha): 15 | GLXMA plant response rating, 0 to 100 scale ([5]; 250 g a.i./ha): 29 | GLXMA plant response rating, 0 to 100 scale ([5]; 375 g a.i./ha): 39 | Plant response rating (0 to 100 scale) GLXMA [5, 6]: 15 | Plant response rating (0 to 100 scale) GLXMA [5, 7]: 29 | Plant response rating (0 to 100 scale) GLXMA [5, 8]: 39
